# Laboratory results reported in patent EP0183129A1, “Quinolonecarboxylic acid derivatives” (KYORIN PHARMACEUTICAL CO., LTD., priority 1984, dated 1986).
# Experiments:
# [1] = system: Clostridium perfringens KYA 13123; experiment: microbe, parasite or virus in culture; assay type: cell-based; conditions: KYA13123
# [2] = system: S. agalactiae 4394; experiment: In vitro antibacterial activity, MIC (clinical isolates); assay type: cell-based; conditions: Streptococcus agalactiae, 4394
# [3] = system: S. pyogenes 3107; experiment: as above; assay type: cell-based; conditions: Streptococcus pyogenes, 3107
# [4] = system: Serratia marcescens IID 618; experiment: In vitro antibacterial activity, MIC (standard strain); assay type: cell-based; conditions: Serratia marcescens, IID618
# [5] = system: Morganella morganii IID 602; experiment: as above; assay type: cell-based; conditions: Morganella morganii, IID602
# [6] = system: Shigella sonnei IID 969; experiment: as above; assay type: cell-based; conditions: IID969, 10^6 cells/ml
# Protocol: Experiment-1 In vitro antibacterial activity
# The in vitro antibacterial activity against gram-positive and gram-negative bacteria has been investivated.
# The minimum inhibitory concentration (MIC) was determined in accordance with the method recommended by Japan Society of Chemotherapy.
# [7] = system: P. aeruginosa IFO 12689; experiment: as above; assay type: cell-based, Pseudomonas aeruginosa; conditions: Pseudomonas aeruginosa, IFO12689
# [8] = system: C. ramosum; experiment: as above; assay type: cell-based; conditions: Thomasclavelia ramosa
# [9] = system: S. agalactiae 4049; experiment: In vitro antibacterial activity, MIC (clinical isolates); assay type: cell-based; conditions: Streptococcus agalactiae, 4049
# [10] = system: S. marcescens GN 7577; experiment: In vitro antibacterial activity, MIC (standard strain); assay type: cell-based; conditions: Serratia marcescens, GN7577
# [11] = system: S. pneumoniae 2950; experiment: In vitro antibacterial activity, MIC (clinical isolates); assay type: cell-based; conditions: Streptococcus pneumoniae, 2950
# [12] = system: E. coli ATCC 10536; experiment: In vitro antibacterial activity, MIC (standard strain); assay type: cell-based; conditions: Escherichia coli, ATCC10536
# [13] = system: S. agalactiae 4468; experiment: In vitro antibacterial activity, MIC (clinical isolates); assay type: cell-based; conditions: Streptococcus agalactiae, 4468
# [14] = system: B. fragilis 25285; experiment: In vitro antibacterial activity, MIC (standard strain); assay type: cell-based, Bacteroides fragilis; conditions: Bacteroides fragilis, 25285
# [15] = system: Staphylococcus aureus 209 P; experiment: as above; assay type: cell-based; conditions: Staphylococcus aureus, 209P
# [16] = system: S. pyogenes IID 692; experiment: as above; assay type: cell-based; conditions: Streptococcus pyogenes, IID692
# [17] = system: S. faecalis 402; experiment: In vitro antibacterial activity, MIC (clinical isolates); assay type: cell-based; conditions: Enterococcus faecalis, 402
# [18] = system: Yersinia enterocolitica IID 981; experiment: In vitro antibacterial activity, MIC (standard strain); assay type: cell-based; conditions: Yersinia enterocolitica, IID981
# [19] = system: Acinetobacter anitratus IID 876; experiment: as above; assay type: cell-based; conditions: Acinetobacter calcoaceticus, IID876
# [20] = system: S. pyogenes 3102; experiment: In vitro antibacterial activity, MIC (clinical isolates); assay type: cell-based; conditions: Streptococcus pyogenes, 3102
# [21] = system: P. mirabilis IID 994; experiment: In vitro antibacterial activity, MIC (standard strain); assay type: cell-based; conditions: Proteus mirabilis, IID994
# [22] = system: E. coli ML 4707; experiment: as above; assay type: cell-based; conditions: Escherichia coli, ML4707
# [23] = system: S. agalactiae 4342; experiment: In vitro antibacterial activity, MIC (clinical isolates); assay type: cell-based; conditions: Streptococcus agalactiae, 4342
# [24] = system: S. aureus IID 670 (Terajima); experiment: In vitro antibacterial activity, MIC (standard strain); assay type: cell-based, Staphylococcus aureus; conditions: Staphylococcus aureus, IID670
# [25] = system: Citrobacter freundii IID 976; experiment: as above; assay type: cell-based; conditions: Citrobacter freundii, IID976
# [26] = system: Proteus vulgaris IFO 3167; experiment: as above; assay type: cell-based; conditions: Proteus vulgaris, IFO3167
# [27] = system: S. pneumoniae 2054; experiment: In vitro antibacterial activity, MIC (clinical isolates); assay type: cell-based; conditions: Streptococcus pneumoniae, 2054
# [28] = system: S. epidermidis IID 866; experiment: In vitro antibacterial activity, MIC (standard strain); assay type: cell-based; conditions: Staphylococcus epidermidis, IID866
# [29] = system: Enterobacter cloacae IID 977; experiment: as above; assay type: cell-based; conditions: Enterobacter cloacae, IID977
# [30] = system: S. pyogenes 4372; experiment: In vitro antibacterial activity, MIC (clinical isolates); assay type: cell-based; conditions: Streptococcus pyogenes, 4372
# [31] = system: S. pneumoniae 15; experiment: as above; assay type: cell-based; conditions: Streptococcus pneumoniae, 15
# [32] = system: Escherichia coli NIHJ JC-2; experiment: In vitro antibacterial activity, MIC (standard strain); assay type: cell-based; conditions: Escherichia coli, NIHJJC2
# [33] = system: K. pneumoniae 1-220S; experiment: as above; assay type: cell-based; conditions: Klebsiella pneumoniae, 1220S
# [34] = system: S. faecalis 49; experiment: In vitro antibacterial activity, MIC (clinical isolates); assay type: cell-based; conditions: Enterococcus faecalis, 49
# [35] = system: Bacillus subtilis PCI 219; experiment: In vitro antibacterial activity, MIC (standard strain); assay type: cell-based; conditions: Bacillus subtilis, PCI219
# [36] = system: Streptococcus pyogenes S-8; experiment: as above; assay type: cell-based; conditions: Streptococcus pyogenes, S8
# [37] = system: Klebsiella pneumoniae KY(GN)6445; experiment: as above; assay type: cell-based; conditions: Klebsiella pneumoniae
# [38] = system: Salmonella entritidis IID 604; experiment: as above; assay type: cell-based; conditions: Salmonella, IID604
# [39] = system: S. pneumoniae 3227; experiment: In vitro antibacterial activity, MIC (clinical isolates); assay type: cell-based; conditions: Streptococcus pneumoniae, 3227
# [40] = system: S. faecalis 214; experiment: as above; assay type: cell-based; conditions: Enterococcus faecalis, 214
# [41] = system: Fusobacterium varium KYA 8501; experiment: In vitro antibacterial activity, MIC (standard strain); assay type: cell-based; conditions: Fusobacterium varium, KYA8501
# [42] = system: Bacteroides fragilis GM 7000; experiment: as above; assay type: cell-based; conditions: Bacteroides fragilis, GM7000
# [43] = system: S. aureus Smith; experiment: as above; assay type: cell-based, Staphylococcus aureus; conditions: Staphylococcus aureus; S. aureus Smith; 10^6 cells/ml; standard strain
# [44] = system: S. pyogenes 3130; experiment: In vitro antibacterial activity, MIC (clinical isolates); assay type: cell-based; conditions: Streptococcus pyogenes
# [45] = system: B. fragilis 0558; experiment: In vitro antibacterial activity, MIC (standard strain); assay type: cell-based, Bacteroides fragilis; conditions: Bacteroides fragilis, 0558
# [46] = system: Pseudomonas aeruginosa V-1; experiment: as above; assay type: cell-based; conditions: Pseudomonas aeruginosa, V1
# [47] = system: S. faecalis IID 682; experiment: as above; assay type: cell-based; conditions: Enterococcus faecalis, IID682
# [48] = system: S. agalactiae 4368; experiment: In vitro antibacterial activity, MIC (clinical isolates); assay type: cell-based; conditions: Streptococcus agalactiae, 4368
# [49] = system: S. faecalis 401; experiment: as above; assay type: cell-based; conditions: Enterococcus faecalis, 401
# [50] = system: S. pneumoniae IID 552; experiment: In vitro antibacterial activity, MIC (standard strain); assay type: cell-based; conditions: Streptococcus pneumoniae, IID552
# [51] = system: P. aeruginosa IID 1210; experiment: as above; assay type: cell-based; conditions: Pseudomonas aeruginosa, IID1210
# [52] = system: S. pyogenes 4340; experiment: In vitro antibacterial activity, MIC (clinical isolates); assay type: cell-based; conditions: Streptococcus pyogenes, 4340
# [53] = system: Alcaligenes faecalis 0104002; experiment: In vitro antibacterial activity, MIC (standard strain); assay type: cell-based; conditions: Alcaligenes faecalis, 0104002
# [54] = system: S. agalactiae 4470; experiment: In vitro antibacterial activity, MIC (clinical isolates); assay type: cell-based; conditions: Streptococcus agalactiae, 4470
structure (smiles),measurement,setting,value
"NCC1CCN(c2cc3c(cc2F)c(=O)c(C(=O)O)cn3C2CC2)C1 (stereo not drawn) [Example 6, 7-(3-Aminomethyl-l-pyrrolidinyl)-l-cyclopropyl-6-fluoro-l,4-dihydro-4-oxo-3-quinolinecarboxylic acid]",MIC,[1],3.13 µg/mL
same,MIC,[2],0.39 µg/mL
same,MIC,[3],0.05 µg/mL
same,MIC,[4],0.39 µg/mL
same,MIC,[5],0.39 µg/mL
same,MIC,[6],0.05 µg/mL
same,MIC,[7],0.78 µg/mL
same,MIC,[8],12.5 µg/mL
same,MIC,[9],0.39 µg/mL
same,MIC,[10],3.13 µg/mL
same,MIC,[11],0.2 µg/mL
same,MIC,[12],0.05 µg/mL
same,MIC,[13],0.2 µg/mL
same,MIC,[14],12.5 µg/mL
same,MIC,[15],0.05 µg/mL
same,MIC,[16],0.2 µg/mL
same,MIC,[17],0.39 µg/mL
same,MIC,[18],0.2 µg/mL
same,MIC,[19],0.78 µg/mL
same,MIC,[20],0.05 µg/mL
same,MIC,[21],0.1 µg/mL
same,MIC,[22],0.05 µg/mL
same,MIC,[23],0.2 µg/mL
same,MIC,[24],0.05 µg/mL
same,MIC,[25],0.1 µg/mL
same,MIC,[26],0.05 µg/mL
same,MIC,[27],0.39 µg/mL
same,MIC,[28],0.05 µg/mL
same,MIC,[29],0.2 µg/mL
same,MIC,[30],0.1 µg/mL
same,MIC,[31],0.2 µg/mL
same,MIC,[32],0.05 µg/mL
same,MIC,[33],0.2 µg/mL
same,MIC,[34],0.39 µg/mL
same,MIC,[35],0.05 µg/mL
same,MIC,[36],0.1 µg/mL
same,MIC,[37],0.1 µg/mL
same,MIC,[38],0.2 µg/mL
same,MIC,[39],0.2 µg/mL
same,MIC,[40],0.39 µg/mL
same,MIC,[41],25 µg/mL
same,MIC,[42],6.25 µg/mL
same,MIC,[43],0.2 µg/mL
same,MIC,[44],0.05 µg/mL
same,MIC,[45],6.25 µg/mL
same,MIC,[46],0.78 µg/mL
same,MIC,[47],0.39 µg/mL
same,MIC,[48],0.2 µg/mL
same,MIC,[49],0.39 µg/mL
same,MIC,[50],0.1 µg/mL
same,MIC,[51],3.13 µg/mL
same,MIC,[52],0.05 µg/mL
same,MIC,[53],1.56 µg/mL
same,MIC,[54],0.2 µg/mL
